According to PubChem BioAssay (NCI):
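Step 1: Grow cells in 96-well plates. Step 2: Expose to compound for 48 hours at 5 concentrations. Step 3: Interpolate endpoints linearly; if unreached, use highest concentration. TGI: concentration producing complete growth inhibition.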

How the values were obtained:
Experiment in all cases: inhibition of tumour cell growth, NCI panel, 48 h
786-0 renal = test system: 786-0 renal
A549 NSCLC = test system: A549 NSCLC
EKVX NSCLC = test system: EKVX NSCLC
HS 578T breast = test system: HS 578T breast
NCI-H23 lung = test system: NCI-H23 lung
NCI-H522 lung = test system: NCI-H522 lung
RXF 393 renal = test system: RXF 393 renal
SK-MEL-5 melanoma = test system: SK-MEL-5 melanoma
MCF7 breast = test system: MCF7 breast
TK-10 renal = test system: TK-10 renal

SMILES	TGI (786-0 renal) [µM]	TGI (A549 NSCLC) [µM]	TGI (EKVX NSCLC) [µM]	TGI (HS 578T breast) [µM]	TGI (NCI-H23 lung) [µM]	TGI (NCI-H522 lung) [µM]	TGI (RXF 393 renal) [µM]	TGI (SK-MEL-5 melanoma) [µM]	TGI (MCF7 breast) [µM]	TGI (TK-10 renal) [µM]
Cn1c(SCc2ccc(F)cc2)nnc1C12CC3CC(CC(C3)C1)C2	> 100	> 100	> 100	85.1	> 100	> 100	> 100	26.6	–	–
C[N+](C)([O-])CCOc1cc2c(c3ccccc13)-c1ccccc1C2=O	–	54.6	64.7	–	74.7	26.5	33.2	28.7	> 100	–
O=C1OCC/C1=N/O	> 100	> 100	> 100	–	> 100	> 100	> 100	> 100	–	> 100
COc1ccc(C2c3cn[nH]c3CC3CCCCC32)cc1 (configuration not stated)	33.2	30.9	–	–	33.6	36.3	–	29.1	32.8	37.1
Cc1c(O)nc(-n2[nH]c3c(c2=O)CCCC3)[nH]c1=O	> 100	–	> 100	> 100	> 100	> 100	> 100	> 100	–	> 100
CCCNc1ncnc2c1ncn2C	> 100	> 100	> 100	–	> 100	> 100	> 100	> 100	> 100	> 100
CCOC(=O)C1S/C(=N\C(=N)N[N+](=O)[O-])N=C1C (configuration not stated)	> 100	> 100	> 100	–	> 100	> 100	> 100	–	–	> 100
Cc1ccc(S(=O)(=O)n2c3c(c4ccccc42)CCN2C[C@H]([C@H](C)Br)CC[C@@H]32)cc1	> 100	> 100	> 100	–	> 100	> 100	> 100	> 100	> 100	> 100
CC(c1ccccc1)N1CCN(C(C)c2ccccc2)CC1 (configuration not stated)	> 100	> 100	> 100	> 100	> 100	> 100	> 100	35.7	–	> 100
O=C1C=C/C(=N\N=C(c2ccccc2)c2ccccc2)O1	> 10	> 10	> 10	–	> 10	–	> 10	> 10	> 10	> 10
COc1ccc(C(=O)/C=C/c2ccc(OCCCOc3ccc(/C=C/C(=O)c4ccc(OC)cc4)cc3)cc2)cc1	> 100	> 100	> 100	> 100	–	–	> 100	> 100	> 100	> 100
O=C1NC2c3c(I)sc(I)c3C(O)C2O1 (configuration not stated)	> 100	> 100	> 100	> 100	> 100	–	> 100	–	> 100	> 100
CCOC(=O)c1c(-c2ccc(O)c(OC)c2)c(C#N)c(=S)n(C2OC(CO)C(O)C(O)C2O)c1-c1ccccc1 (configuration not stated)	> 100	> 100	> 100	> 100	> 100	–	> 100	> 100	> 100	–
Cc1ccc(/C=N\NC2c3cc(Cl)ccc3Nc3nc(=O)[nH]c(C)c32)cc1 (configuration not stated)	> 100	> 100	> 100	–	> 100	> 100	> 100	–	–	> 100
O=C(O)C(Cl)(Cl)Cl	–	> 100	> 100	–	> 100	–	> 100	> 100	–	> 100
Cc1c(/C=N\NC(=S)NCCNC(=S)N/N=C\c2c(C)n(C)n(-c3ccccc3)c2=O)c(=O)n(-c2ccccc2)n1C	> 100	> 100	> 100	> 100	> 100	–	> 100	> 100	–	> 100
O=C(O)COc1ccccc1C(=O)Nc1ccccc1	> 100	> 100	> 100	–	> 100	> 100	–	> 100	–	> 100
O=C1CC2(CCC(O)(c3ccc4ccccc4c3)C(C(=O)c3ccc4ccccc4c3)C2)C(=O)c2ccccc2N1 (configuration not stated)	–	> 100	> 100	> 100	> 100	–	> 100	> 100	> 100	> 100
CC(O)CNC(=O)C(C)Oc1ccc(OCC2CCCCC2)cc1 (configuration not stated)	> 100	> 100	–	–	–	> 100	–	> 100	–	> 100
Nc1ccc(N=Nc2c(S(=O)(=O)O)cc3ccccc3c2S(=O)(=O)O)cc1	> 100	> 100	> 100	> 100	> 100	> 100	> 100	> 100	–	> 100
O=c1oc2cc(O)ccc2c(O)c1C(c1ccccc1)c1c(O)c2ccc(O)cc2oc1=O	–	> 100	> 100	> 100	> 100	–	> 100	> 100	> 100	> 100
